Results published in ChEMBL document CHEMBL3763052, “Novel N-acyl-carbazole derivatives as 5-HT7R antagonists” (Eur J Med Chem, 2016).

Tests used:
[1] = target: T1, 5-hydroxytryptamine receptor 7 (Homo sapiens, UniProt P34969); assay: Binding affinity to recombinant 5-HT7 receptor (unknown origin) after 1.5 hrs by radioligand displacement assay
[2] = AUC (0 to infinity) in Sprague-Dawley rat at 10 mg/kg, iv by LC-MS/MS analysis; format: ADME, organism-based; set-up: dose 10 mg/kg, route intravenous, time infinity; details: in vivo
[3] = Terminal half life in Sprague-Dawley rat at 10 mg/kg, po by LC-MS/MS analysis; format: ADME, organism-based; details: in vivo, read-out: beta t1/2
[4] = AUC (0 to infinity) in Sprague-Dawley rat at 10 mg/kg, po by LC-MS/MS analysis; format: ADME, organism-based; set-up: dose 10 mg/kg, route oral, time infinity; details: in vivo
[5] = target: 5-hydroxytryptamine receptor 1D (Homo sapiens, UniProt P28221); assay: Binding affinity to recombinant 5-HT1D receptor (unknown origin) after 1.5 hrs by radioligand displacement assay
Chain of 5-hydroxytryptamine receptor 1D (P28221 whole entry): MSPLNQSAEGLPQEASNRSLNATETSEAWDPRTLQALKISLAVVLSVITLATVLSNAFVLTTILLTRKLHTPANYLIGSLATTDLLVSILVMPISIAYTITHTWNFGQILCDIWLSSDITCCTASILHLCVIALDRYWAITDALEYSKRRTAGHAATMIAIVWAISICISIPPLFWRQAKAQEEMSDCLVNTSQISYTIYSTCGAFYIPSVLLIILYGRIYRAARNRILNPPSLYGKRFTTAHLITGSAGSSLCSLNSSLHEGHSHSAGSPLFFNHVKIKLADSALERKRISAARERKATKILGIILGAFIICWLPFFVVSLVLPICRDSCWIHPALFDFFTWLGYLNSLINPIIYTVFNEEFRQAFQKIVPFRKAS

[6] = target: T2, 5-hydroxytryptamine receptor 1A (Homo sapiens, UniProt P08908); assay: Binding affinity to recombinant 5-HT1A receptor (unknown origin) after 1.5 hrs by radioligand displacement assay
T2 sequence (P08908 whole entry): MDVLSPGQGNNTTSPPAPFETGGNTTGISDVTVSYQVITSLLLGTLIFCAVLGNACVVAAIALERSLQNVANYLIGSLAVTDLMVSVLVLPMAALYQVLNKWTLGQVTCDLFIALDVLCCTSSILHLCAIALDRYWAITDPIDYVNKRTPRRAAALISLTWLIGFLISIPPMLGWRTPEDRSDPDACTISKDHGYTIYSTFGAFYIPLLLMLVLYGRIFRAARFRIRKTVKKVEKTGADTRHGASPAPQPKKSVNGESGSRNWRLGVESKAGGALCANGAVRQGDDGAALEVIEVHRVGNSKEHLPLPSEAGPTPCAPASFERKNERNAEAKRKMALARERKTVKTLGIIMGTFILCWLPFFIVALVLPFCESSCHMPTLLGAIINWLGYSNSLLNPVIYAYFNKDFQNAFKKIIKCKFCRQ

[7] = Oral bioavailability in Sprague-Dawley rat at 10 mg/kg by LC-MS/MS analysis; format: ADME, organism-based; details: in vivo
[8] = Mean residential time in Sprague-Dawley rat at 10 mg/kg, iv by LC-MS/MS analysis; format: ADME, organism-based; details: in vivo
[9] = Clearance in Sprague-Dawley rat at 10 mg/kg, iv by LC-MS/MS analysis; format: ADME, organism-based; details: in vivo
[10] = Drug uptake in Sprague-Dawley rat brain at 10 mg/kg, iv after 2 hrs by LC-MS/MS analysis; format: ADME, organism-based; details: read-out: Drug uptake
[11] = Plasma concentration in Sprague-Dawley rat at 10 mg/kg, iv after 2 hrs by LC-MS/MS analysis; format: ADME, organism-based
[12] = target: 5-hydroxytryptamine receptor 6 (Homo sapiens, UniProt P50406); assay: Binding affinity to recombinant 5-HT6 receptor (unknown origin) at 10 uM after 1.5 hrs by radioligand displacement assay
Chain of 5-hydroxytryptamine receptor 6 (P50406 whole entry): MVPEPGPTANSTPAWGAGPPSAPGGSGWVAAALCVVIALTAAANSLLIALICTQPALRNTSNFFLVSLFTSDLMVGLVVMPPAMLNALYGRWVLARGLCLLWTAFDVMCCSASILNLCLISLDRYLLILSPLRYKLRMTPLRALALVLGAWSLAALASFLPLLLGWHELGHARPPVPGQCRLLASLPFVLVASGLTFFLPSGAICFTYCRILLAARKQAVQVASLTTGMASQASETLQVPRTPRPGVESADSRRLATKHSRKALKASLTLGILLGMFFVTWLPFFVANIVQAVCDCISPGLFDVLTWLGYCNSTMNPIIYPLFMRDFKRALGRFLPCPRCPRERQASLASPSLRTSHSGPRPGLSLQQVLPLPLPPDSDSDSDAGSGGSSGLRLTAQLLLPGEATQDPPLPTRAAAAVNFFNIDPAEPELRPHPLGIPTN

[13] = Cmax in Sprague-Dawley rat at 10 mg/kg, po by LC-MS/MS analysis; format: ADME, organism-based; set-up: dose 10 mg/kg, route oral; details: in vivo
[14] = target: 5-hydroxytryptamine receptor 2A (Homo sapiens, UniProt P28223); assay: Binding affinity to recombinant 5-HT2A receptor (unknown origin) after 1.5 hrs by radioligand displacement assay
Chain of 5-hydroxytryptamine receptor 2A (P28223 whole entry): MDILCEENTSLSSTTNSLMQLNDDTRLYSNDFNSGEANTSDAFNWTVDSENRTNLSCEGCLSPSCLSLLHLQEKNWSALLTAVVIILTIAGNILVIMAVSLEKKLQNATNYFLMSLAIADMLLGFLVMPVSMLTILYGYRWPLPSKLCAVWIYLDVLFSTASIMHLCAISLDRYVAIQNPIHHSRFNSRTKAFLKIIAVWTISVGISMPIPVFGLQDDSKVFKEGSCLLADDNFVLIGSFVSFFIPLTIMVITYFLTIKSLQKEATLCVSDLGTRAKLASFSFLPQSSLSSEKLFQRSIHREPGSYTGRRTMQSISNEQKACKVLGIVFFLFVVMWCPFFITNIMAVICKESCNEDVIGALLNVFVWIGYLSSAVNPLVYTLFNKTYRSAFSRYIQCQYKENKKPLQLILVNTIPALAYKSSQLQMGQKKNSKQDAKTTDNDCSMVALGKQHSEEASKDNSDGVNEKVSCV

[15] = AUC (0 to last) in Sprague-Dawley rat at 10 mg/kg, po by LC-MS/MS analysis; format: ADME, organism-based; set-up: dose 10 mg/kg, time 0 - last, route oral; details: in vivo
[16] = target: T1, 5-hydroxytryptamine receptor 7; assay: Agonist activity at human 5-HT7 receptor expressed in HEK293 cells assessed as increase in cAMP level at 12.5 uM by fluorescence analysis relative to 5-CT; format: functional, cell-based
[17] = Terminal half life in Sprague-Dawley rat at 10 mg/kg, iv by LC-MS/MS analysis; format: ADME, organism-based; details: in vivo, read-out: beta t1/2
[18] = target: T1, 5-hydroxytryptamine receptor 7; assay: Displacement of [3H]LSD from 5-HT7 receptor (unknown origin) expressed in CHO-K1 cells by liquid scintillation counting method; format: cell-based
[19] = target: T3, 5-hydroxytryptamine receptor 3A (Homo sapiens) (UniProt P46098); assay: Binding affinity to recombinant 5-HT3 receptor (unknown origin) at 10 uM after 1.5 hrs by radioligand displacement assay
T3 sequence (whole entry): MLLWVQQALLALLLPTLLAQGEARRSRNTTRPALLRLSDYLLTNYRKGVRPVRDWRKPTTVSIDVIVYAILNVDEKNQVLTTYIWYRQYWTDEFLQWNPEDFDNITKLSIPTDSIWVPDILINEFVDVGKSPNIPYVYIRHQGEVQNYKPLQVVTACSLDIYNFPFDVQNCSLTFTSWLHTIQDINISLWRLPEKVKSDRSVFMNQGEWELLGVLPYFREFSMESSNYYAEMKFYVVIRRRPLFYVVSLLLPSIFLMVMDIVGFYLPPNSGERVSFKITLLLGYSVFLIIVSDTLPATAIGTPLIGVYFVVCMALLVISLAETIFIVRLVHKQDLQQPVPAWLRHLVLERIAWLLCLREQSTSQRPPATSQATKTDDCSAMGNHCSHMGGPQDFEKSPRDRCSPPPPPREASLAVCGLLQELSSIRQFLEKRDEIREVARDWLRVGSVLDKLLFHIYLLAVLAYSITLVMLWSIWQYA

[20] = target: T4, 5-hydroxytryptamine receptor 2C (Homo sapiens, UniProt P28335); assay: Binding affinity to recombinant 5-HT2C receptor (unknown origin) after 1.5 hrs by radioligand displacement assay
T4 sequence (P28335 whole entry): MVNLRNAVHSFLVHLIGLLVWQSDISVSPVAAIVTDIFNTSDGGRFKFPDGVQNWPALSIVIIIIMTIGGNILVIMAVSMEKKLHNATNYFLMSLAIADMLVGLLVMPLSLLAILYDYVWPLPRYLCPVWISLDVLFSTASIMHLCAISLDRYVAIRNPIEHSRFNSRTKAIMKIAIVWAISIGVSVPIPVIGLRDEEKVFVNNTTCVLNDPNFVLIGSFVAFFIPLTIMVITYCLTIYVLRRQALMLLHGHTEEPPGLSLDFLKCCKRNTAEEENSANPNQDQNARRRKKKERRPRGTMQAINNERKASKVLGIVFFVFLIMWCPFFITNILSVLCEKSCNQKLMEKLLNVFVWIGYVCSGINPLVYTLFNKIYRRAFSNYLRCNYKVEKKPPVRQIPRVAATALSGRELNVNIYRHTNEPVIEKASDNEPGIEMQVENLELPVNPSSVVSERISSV

[21] = target: 5-hydroxytryptamine receptor 5A (Homo sapiens, UniProt P47898); assay: Binding affinity to recombinant 5-HT5 receptor (unknown origin) at 10 uM after 1.5 hrs by radioligand displacement assay
Chain of 5-hydroxytryptamine receptor 5A (P47898 whole entry): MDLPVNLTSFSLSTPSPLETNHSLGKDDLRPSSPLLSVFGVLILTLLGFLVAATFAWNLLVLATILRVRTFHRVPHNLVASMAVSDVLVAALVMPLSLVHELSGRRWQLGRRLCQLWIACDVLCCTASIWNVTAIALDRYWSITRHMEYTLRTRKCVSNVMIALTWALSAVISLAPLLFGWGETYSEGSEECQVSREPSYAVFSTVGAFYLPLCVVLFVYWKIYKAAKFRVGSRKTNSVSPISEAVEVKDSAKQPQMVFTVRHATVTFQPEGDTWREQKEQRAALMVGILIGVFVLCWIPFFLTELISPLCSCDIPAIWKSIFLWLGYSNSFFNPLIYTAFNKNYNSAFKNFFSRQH

[22] = target: 5-hydroxytryptamine receptor 1B (Homo sapiens, UniProt P28222); assay: Binding affinity to recombinant 5-HT1B receptor (unknown origin) after 1.5 hrs by radioligand displacement assay
Chain of 5-hydroxytryptamine receptor 1B (P28222 whole entry): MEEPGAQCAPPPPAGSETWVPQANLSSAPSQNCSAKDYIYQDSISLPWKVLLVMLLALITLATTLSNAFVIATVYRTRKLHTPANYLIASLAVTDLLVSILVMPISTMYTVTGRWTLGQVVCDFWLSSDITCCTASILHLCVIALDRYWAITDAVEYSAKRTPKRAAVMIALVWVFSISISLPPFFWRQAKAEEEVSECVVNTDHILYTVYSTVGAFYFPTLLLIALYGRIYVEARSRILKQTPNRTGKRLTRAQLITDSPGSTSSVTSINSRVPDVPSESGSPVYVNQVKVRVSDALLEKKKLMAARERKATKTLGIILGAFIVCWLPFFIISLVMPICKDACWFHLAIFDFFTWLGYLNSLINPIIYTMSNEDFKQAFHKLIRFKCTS

Mus musculus = assay: Antidepressant activity in ICR mouse assessed as immobility time at 30 mg/kg, iv administered 30 mins before testing by forced swim test (reference value: 159.1 sec); format: functional
[23] = Tmax in Sprague-Dawley rat at 10 mg/kg, po by LC-MS/MS analysis; format: ADME, organism-based; details: in vivo
[24] = Plasma concentration in Sprague-Dawley rat at 10 mg/kg, po after 2 hrs by LC-MS/MS analysis; format: ADME, organism-based
[25] = Drug uptake in Sprague-Dawley rat brain at 10 mg/kg, po after 2 hrs by LC-MS/MS analysis; format: ADME, organism-based; details: read-out: Drug uptake
[26] = Metabolic stability in human liver microsomes assessed as compound remaining at 1 uM after 30 mins by LC-MS/MS in presence of NADPH; format: ADME; details: read-out: Stability
[27] = AUC (0 to last) in Sprague-Dawley rat at 10 mg/kg, iv by LC-MS/MS analysis; format: ADME, organism-based; set-up: dose 10 mg/kg, time 0 - last, route intravenous; details: in vivo
[28] = Ratio of drug uptake in brain to plasma of Sprague-Dawley rat at 10 mg/kg, iv after 2 hrs by LC-MS/MS analysis; format: ADME, organism-based; details: read-out: BPR
[29] = target: T1, 5-hydroxytryptamine receptor 7; assay: Antagonist activity at human 5-HT7 receptor expressed in HEK293 cells assessed as inhibition of 5-HT-induced cAMP production at 10 uM pretreated for 10 mins followed by stimulation with 5-HT for 30 mins by fluorescence analysis; format: functional, cell-based
[30] = Volume of distribution at steady state in Sprague-Dawley rat at 10 mg/kg, iv by LC-MS/MS analysis; format: ADME, organism-based; details: in vivo, read-out: Vdss
[31] = target: 5-hydroxytryptamine receptor 2B (Homo sapiens, UniProt P41595); assay: Binding affinity to recombinant 5-HT2B receptor (unknown origin) after 1.5 hrs by radioligand displacement assay
Chain of 5-hydroxytryptamine receptor 2B (P41595 whole entry): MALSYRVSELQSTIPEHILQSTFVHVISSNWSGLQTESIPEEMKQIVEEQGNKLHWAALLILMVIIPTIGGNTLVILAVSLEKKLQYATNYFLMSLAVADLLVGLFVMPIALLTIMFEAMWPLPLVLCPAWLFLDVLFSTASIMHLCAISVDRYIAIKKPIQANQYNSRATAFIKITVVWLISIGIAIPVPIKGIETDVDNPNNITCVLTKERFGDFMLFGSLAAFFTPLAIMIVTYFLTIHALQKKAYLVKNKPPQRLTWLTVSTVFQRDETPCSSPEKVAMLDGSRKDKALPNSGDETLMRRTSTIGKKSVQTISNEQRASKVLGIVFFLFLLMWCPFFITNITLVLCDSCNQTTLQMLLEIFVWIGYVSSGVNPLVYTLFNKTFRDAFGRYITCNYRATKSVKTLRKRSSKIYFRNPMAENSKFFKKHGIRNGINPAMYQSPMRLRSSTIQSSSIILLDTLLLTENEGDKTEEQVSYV

[32] = Ratio of drug uptake in brain to plasma of Sprague-Dawley rat at 10 mg/kg, po after 2 hrs by LC-MS/MS analysis; format: ADME, organism-based; details: read-out: BPR

T1 sequence (P34969 whole entry): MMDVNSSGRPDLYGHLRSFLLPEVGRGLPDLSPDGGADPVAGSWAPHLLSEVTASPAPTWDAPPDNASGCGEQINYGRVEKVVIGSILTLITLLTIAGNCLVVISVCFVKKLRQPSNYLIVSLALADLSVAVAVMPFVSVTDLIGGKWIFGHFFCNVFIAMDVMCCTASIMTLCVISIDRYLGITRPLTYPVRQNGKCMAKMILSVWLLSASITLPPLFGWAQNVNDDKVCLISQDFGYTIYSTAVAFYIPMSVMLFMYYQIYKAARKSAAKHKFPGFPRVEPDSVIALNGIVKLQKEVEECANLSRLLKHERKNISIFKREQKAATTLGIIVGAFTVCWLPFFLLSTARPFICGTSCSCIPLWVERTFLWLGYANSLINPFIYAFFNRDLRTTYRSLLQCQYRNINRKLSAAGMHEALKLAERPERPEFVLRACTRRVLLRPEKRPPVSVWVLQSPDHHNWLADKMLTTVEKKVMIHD

COc1ccccc1N1CCN(CCCCCC(=O)n2c3ccccc3c3ccccc32)CC1.Cl
Ki [1]: 74 nM | AUC(0-inf) [2]: 1470 ng·h/mL | half-life [3]: 397 min | AUC(0-inf) [4]: 998 ng·h/mL | Ki [5]: 1280 nM | Ki [6]: 549 nM | bioavailability [7]: 67.8% | MRT [8]: 2.81 h | clearance [9]: 114 mL/min/kg | concentration at 2 h [10]: 268 ng/mL | concentration at 2 h [11]: 210 ng/mL | inhibition [12]: 31% | Cmax [13]: 160 ng/mL | Ki [14]: 1260 nM | AUC(0-t) [15]: 561 ng·h/mL | Activity [16]: 22.2% | half-life [17]: 199 min | Ki [18]: 74 nM | inhibition [19]: 18% | Ki [20]: 588 nM | inhibition [21]: 34% | Ki [22]: 845 nM | Time (Mus musculus): 118.9 s | Tmax [23]: 3.57 h | concentration at 2 h [24]: 70 ng/mL | concentration at 2 h [25]: 1530 ng/mL | remaining at 0.5 h, 1 µM [26]: 50.8% | AUC(0-t) [27]: 1170 ng·h/mL | Kp at 2 h [28]: 1.23 | inhibition [29]: 75.2% | Vd [30]: 33.5 L/kg | Ki [31]: 419 nM | Kp at 2 h [32]: 25.5
